Experimental data: EP0792649A1, “Treatment of sleep disorders” (ELI LILLY AND COMPANY, priority 1996, dated 1997)

What was measured:
Type in all cases: in vivo, Sprague-Dawley rats
5-HT = experiment: Microdialysis assays of monoamines: 5-HT level in hypothalamus dialysate of conscious rats; conditions: for 5-HT level measured in the dialysate, % of baseline: Test 1, single animal; for 5-HT, percent of baseline: Test 3, average of three animals
Protocol: (§1) The tests were carried out as follows.
(§2) Sprague-Dawley rats (Harlan or Charles River) weighing 270-300 grams were surgically implanted with microdialysis probes under chloral hydrate/pentobarbital anesthesia (170 and 36 mg/kg i.p. in 30% propylene glycol, 14% ethanol) (Perry and Fuller, Effect of fluoxetine on serotonin and dopamine concentration in rat hypothalamus after administration of fluoxetine plus L-5-hydroxytryptophan, Life Sci., 50, 1683-90 (1992)). A David Kopf stereotaxic instrument was used to implant the probe unilaterally in the hypothalamus at coordinates rostral -1.5 mm, lateral -1.3 mm, and ventral -9.0 mm (Paxinos and Watson, 1986). After a 48 hour recovery period, rats were placed in a large plastic bowl with a mounted liquid swivel system (CMA/120 system for freely moving animals, Bioanalytical Systems, West Lafayette, IN). Filtered artificial cerebrospinal fluid (CSF) (150 mM NaCl, 3.0 mM KCl, 1.7 mM CaCl2, and 0.9 mM MgCl2) was perfused through the probe at a rate of 1.0 µl/min. The output dialysate line was fitted to a tenport HPLC valve with a 20 µl loop. At the end of each 30 minute sampling period, dialysate collected in the loop was injected on an analytical column (Spherisorb 3 µ ODS2, 2X150 mm, Keystone Scientific).
(§3) The method used to measure monoamines was as described by Perry and Fuller (1993). Briefly, dialysate collected in the 20 µl loop was assayed for 5-HT, NE and DA. The 20 µl injection went onto the column with a mobile phase which resolved NE, DA, and 5-HT: 75 mM potassium acetate, 0.5 mM ethylenediaminetetraacetic acid, 1.4 mM sodium octanesulfonic acid and 8% methanol, pH 4.9. The mobile phase for the amine column was delivered with a flow programmable pump at an initial flow rate of 0.2 ml/min increasing to 0.3 ml/min at 5 min then decreasing back to 0.2 ml/min at 26 min with a total run time of 30 min. Flow programming was used to elute the 5-HT within a 25 min time period. The electrochemical detector (EG&G, Model 400) for the amine column was set at a potential of 400 mV and a sensitivity of 0.2 nA/V. The data was collected and analyzed with a Hewlett-Packard HP1000 chromatography system which measured peak heights and calculated sample concentrations. Basal levels were measured for at least 90 minutes prior to drug administration.
(§4) Extracellular levels of the amines in microdialysates were calculated by comparing peak heights with those of 50 pmole standards. The mean value of the four samples immediately preceding drug administration served as the basal level for each experiment and data was converted to percent of basal. Paired t-tests were used to compare the mean of the basal values from the time point immediately preceding drug administration to those of each time point thereafter.
(§5) The rats were prepared as described above, and the indole was administered subcutaneously at 3 mg/kg 100 minutes after the start of the experiment. Fluoxetine was administered intraperitoneally at 10 mg/kg, together with a second dose of the indole at 3 mg/kg, 210 minutes after the start of the experiment. Each data point reported here represents a single animal.
(§6) The results are shown below as percent of baseline of the three monoamines, at various times after the start of the experiment. Each data point represents the average of three or more animals.
(§7) This test was carried out as described in Test 1, using 4-(2-hydroxy-3-cyclohexylaminopropoxy)indole, maleate, at 3 mg/kg administered at 120 minutes, and (+)-duloxetine, hydrochloride, at 4 mg/kg administered with a second dose of the indole at 3 mg/kg, at 270 minutes. Results are reported as in Test 2 above. The 5-HT results are the average of three animals, and the other results are the average of four animals.

NE = experiment: Microdialysis assays of monoamines: NE level in hypothalamus dialysate of conscious rats
Protocol: as §1, §2, §3, §4, §5, §6, §7

DA = experiment: Microdialysis assays of monoamines: DA level in hypothalamus dialysate of conscious rats
Protocol: as §1, §2, §3, §4, §5, §6, §7

[1] = Test 3, 120 min (time of first indole dose, 3 mg/kg), average of four animals
[2] = Test 3, 150 min, the indole 3 mg/kg at 120 min, average of four animals
[3] = Test 3, 180 min, the indole 3 mg/kg at 120 min, average of four animals
[4] = Test 3, 210 min, the indole 3 mg/kg at 120 min, average of four animals
[5] = Test 3, 240 min, the indole 3 mg/kg at 120 min, average of four animals
[6] = Test 3, 270 min, the indole 3 mg/kg at 120 min, average of four animals
[7] = Test 2, 120 min (time of first (-)-pindolol dose, 5 mg/kg), average of three or more animals
[8] = Test 2, 150 min, (-)-pindolol 5 mg/kg at 120 min, average of three or more animals
[9] = Test 2, 180 min, (-)-pindolol 5 mg/kg at 120 min, average of three or more animals
[10] = Test 2, 210 min, (-)-pindolol 5 mg/kg at 120 min, average of three or more animals

O=C(O)/C=C\C(=O)O.OC(CNC1CCCCC1)COc1cccc2[nH]ccc12 (centres unmarked) [4-(2-hydroxy-3-cyclohexylaminopropoxy)indole, maleate]
5-HT level measured in the dialysate, % of baseline (5-HT; 210 min after start, the indole 3 mg/kg s.c. at 100 min): about 80%
5-HT level measured in the dialysate, % of baseline (5-HT; lowest level after the indole 3 mg/kg s.c. at 100 min): about 50%
5-HT, percent of baseline (5-HT; 120 min (time of first indole dose, 3 mg/kg)): 90%
5-HT, percent of baseline (5-HT; 150 min, the indole 3 mg/kg at 120 min): 130%
5-HT, percent of baseline (5-HT; 180 min, the indole 3 mg/kg at 120 min): 130%
5-HT, percent of baseline (5-HT; 210 min, the indole 3 mg/kg at 120 min): 80%
5-HT, percent of baseline (5-HT; 240 min, the indole 3 mg/kg at 120 min): 90%
5-HT, percent of baseline (5-HT; 270 min, the indole 3 mg/kg at 120 min): 80%
NE level, relative to baseline (NE; Test 1, by 210 min, the indole 3 mg/kg s.c. at 100 min, single animal): nearly to baseline
NE level, % of baseline (NE; Test 1, highest level after the indole 3 mg/kg s.c. at 100 min, single animal): about 180%
NE, percent of baseline (NE; [1]): 100%
NE, percent of baseline (NE; [2]): 160%
NE, percent of baseline (NE; [3]): 140%
NE, percent of baseline (NE; [4]): 140%
NE, percent of baseline (NE; [5]): 130%
NE, percent of baseline (NE; [6]): 150%
DA level, % of baseline (DA; Test 1, 120 min, the indole 3 mg/kg s.c. at 100 min, single animal): about 210%
DA level, relative to baseline (DA; Test 1, 210 min, the indole 3 mg/kg s.c. at 100 min, single animal): near baseline
DA, percent of baseline (DA; [1]): 70%
DA, percent of baseline (DA; [2]): 150%
DA, percent of baseline (DA; [3]): 130%
DA, percent of baseline (DA; [4]): 110%
DA, percent of baseline (DA; [5]): 100%
DA, percent of baseline (DA; [6]): 110%

CC(C)NCC(O)COc1cccc2[nH]ccc12 (single isomer, unassigned; (-)) [(-)-pindolol, 4-(2-hydroxy-3-isopropylaminopropoxy)-indole]
NE, percent of baseline (NE; [7]): 90%
NE, percent of baseline (NE; [8]): 100%
NE, percent of baseline (NE; [9]): 120%
NE, percent of baseline (NE; [10]): 110%
DA, percent of baseline (DA; [7]): 90%
DA, percent of baseline (DA; [8]): 90%
DA, percent of baseline (DA; [9]): 70%
DA, percent of baseline (DA; [10]): 100%
